Measured values from patent US6479435B1, “Diaryl ethers and processes for their preparation and herbicidal and desiccant compositions containing them” (ISK Americas Incorporated, priority 1997, dated 2002).

Experiments:
Format in all cases: in vivo
[1] = tested on: sicklepod (Cassia obtusifolia, CASOB); assay: Pre-emerge greenhouse herbicide test, phytotoxicity rating; conditions: 14 days after application, rating scale 0-100
How it was run: (§1)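 Seeds sown in sandy loam one day before track-sprayer application of acetone solutions at 125–1000 g ai/ha (187 l/ha), then surface-watered to incorporate and bottom-watered. Injury scored visually at 14 days on a 0–100 scale (0 no damage, 100 complete death).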

[2] = tested on: green foxtail (Setaria viridis, SETVI); assay: as above; conditions: 14 days after application, rating scale 0-100
How it was run: as §1

[3] = tested on: large crabgrass (Digitaria sanguinalis, DIGSA); assay: as above; conditions: 14 days after application, rating scale 0-100
How it was run: as §1

[4] = tested on: common ragweed (Ambrosia artemisiifolia L., AMBEL); assay: as above; conditions: 14 days after application, rating scale 0-100
How it was run: as §1

[5] = tested on: barnyardgrass (Echinochloa crusgalli, ECHCG); assay: as above; conditions: 14 days after application, rating scale 0-100
How it was run: as §1

[6] = tested on: Johnsongrass (Sorghum halepense, SORHA); assay: as above; conditions: 14 days after application, rating scale 0-100
How it was run: as §1

[7] = tested on: redroot pigweed (Amaranthus retroflexus, AMARE); assay: as above; conditions: 14 days after application, rating scale 0-100
How it was run: as §1

[8] = tested on: ivyleaf morningglory (Ipomoea hederacea, IPOHE); assay: as above; conditions: 14 days after application, rating scale 0-100
How it was run: as §1

[9] = tested on: lambsquarters (Chenopodium album, CHEAL); assay: as above; conditions: 14 days after application, rating scale 0-100
How it was run: as §1

[10] = tested on: velvetleaf (Abutilon theophrasti, ABUTH); assay: as above; conditions: 14 days after application, rating scale 0-100
How it was run: as §1

[11] = tested on: sicklepod (Cassia obtusifolia, CASOB); assay: Post-emerge greenhouse herbicide test, phytotoxicity rating; conditions: 14 days after application
How it was run: (§2)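 Plants at the 2-3 leaf stage, sown 8-21 days earlier, were track-sprayed post-emergence with compound in acetone plus 0.25% v/v non-ionic surfactant at 63-1000 g ai/ha (187 l/ha). Damage was rated at 14 days on a 0-100 scale (0 none, 100 all plants dead), for both crop injury and weed control.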

[12] = tested on: green foxtail (Setaria viridis, SETVI); assay: as above; conditions: 14 days after application
How it was run: as §2

[13] = tested on: large crabgrass (Digitaria sanguinalis, DIGSA); assay: as above; conditions: 14 days after application
How it was run: as §2

[14] = tested on: barnyardgrass (Echinochloa crusgalli, ECHCG); assay: as above; conditions: 14 days after application
How it was run: as §2

[15] = tested on: Johnsongrass (Sorghum halepense, SORHA); assay: as above; conditions: 14 days after application
How it was run: as §2

[16] = tested on: redroot pigweed (Amaranthus retroflexus, AMARE); assay: as above; conditions: 14 days after application
How it was run: as §2

[17] = tested on: ivyleaf morningglory (Ipomoea hederacea, IPOHE); assay: as above; conditions: 14 days after application
How it was run: as §2

[18] = tested on: lambsquarters (Chenopodium album, CHEAL); assay: as above; conditions: 14 days after application
How it was run: as §2

[19] = tested on: velvetleaf (Abutilon theophrasti, ABUTH); assay: as above; conditions: 14 days after application
How it was run: as §2

[20] = tested on: common ragweed (Ambrosia artemisiifolia L., AMBEL); assay: as above; conditions: 14 days after application
Description: A standard greenhouse herbicide activity screening system was used to evaluate the herbicidal efficacy and crop safety of these test compounds. Six broadleaf weed species including redroot pigweed (Amaranthus retroflexus, AMARE), velvetleaf (Abutilon theophrasti, ABUTH), sicklepod (Cassia obtusifolia, CASOB), ivyleaf morningglory (Ipomoea hederacea, IPOHE), lambsquarters (Chenopodium album, CHEAL) and common ragweed (Ambrosia artemisiifolia L., AMBEL) were used as test species. Four grass weed species including green foxtail (Setaria viridis, SETVI), barnyardgrass (Echinochloa crusgalli, ECHCG), Johnsongrass (Sorghum halepense, SORHA), and large crabgrass (Digitaria sanguinalis, DIGSA) were also used. In addition, three crop species, field corn (Zea mays L., var. Dekalb 535, CORN), soybean (Glycine max L., var. Pella 86, SOY), and upland rice (Oryza sp., var.Tebonnet, RICE) were included.
All test compounds were dissolved in acetone and applied to the test units in a volume of 187 l/ha. […] Plants were arranged on a shelf so that the top of the canopy (post-emerge) or top of the soil surface (pre-emerge) was 40-45 cm below the nozzle. Pressurized air was used to force the test solution through the nozzle as it was mechanically advanced (via electrically driven chain drive) over the top of all test plants/pots. This application simulates a typical commercial field herbicide application.
In the post-emerge test, a commercial non-ionic surfactant was also included (0.25% v/v) to enhance wetting of the leaf surfaces Qf target plants at rates ranging from 63 g ai/ha to 1000 g ai/ha. For post-emerge tests, seeds were planted 8-21 days prior to the test to allow emergence and good foliage development prior to application of the test substances. At the time of the post-emerge application, plants of all species were usually at the 2-3 leaf stage of development. Post-emerge test units were always bottom-watered.
At 14 days after application of the test materials, phytotoxicity ratings were recorded. A rating scale of 0-100 was used as previously described in Research Methods in Weed Science, 2nd edition, B. Truelove, Ed., Southern Weed Science Society, Auburn University, Auburn, Ala., 1977. Briefly, “0” corresponds to no damage and “100” corresponds to complete death of all plants in the test unit. This scale was used both to determine efficacy against weed species and damage to crop species. Herbicide activity data for various compounds of this invention, which are shown by compound number in Tables 1-9, are shown in Tables 13 and 14.

SMILES	phytotoxicity rating CASOB ([1]; 125 g ai/ha)	phytotoxicity rating CASOB ([1]; 500 g ai/ha)	phytotoxicity rating SETVI ([2]; 125 g ai/ha)	phytotoxicity rating SETVI ([2]; 500 g ai/ha)	phytotoxicity rating DIGSA ([3]; 125 g ai/ha)	phytotoxicity rating DIGSA ([3]; 500 g ai/ha)	phytotoxicity rating AMBEL ([4]; 125 g ai/ha)	phytotoxicity rating AMBEL ([4]; 500 g ai/ha)	phytotoxicity rating ECHCG ([5]; 125 g ai/ha)	phytotoxicity rating ECHCG ([5]; 500 g ai/ha)	phytotoxicity rating SORHA ([6]; 125 g ai/ha)	phytotoxicity rating SORHA ([6]; 500 g ai/ha)	phytotoxicity rating AMARE ([7]; 125 g ai/ha)	phytotoxicity rating AMARE ([7]; 500 g ai/ha)	phytotoxicity rating IPOHE ([8]; 125 g ai/ha)	phytotoxicity rating IPOHE ([8]; 500 g ai/ha)	phytotoxicity rating CHEAL ([9]; 125 g ai/ha)	phytotoxicity rating CHEAL ([9]; 500 g ai/ha)	phytotoxicity rating ABUTH ([10]; 125 g ai/ha)	phytotoxicity rating ABUTH ([10]; 500 g ai/ha)	further results
COc1nc(OC)nc(Oc2cc(-c3nc(C)n(C(F)F)c3Cl)c(F)cc2Cl)n1 [Compound 2-4, 5-chloro-4-(4-chloro-2-fluoro-5-(4,6-dimethoxy-2-triazinyloxy)phenyl)-1-difluoromethyl-2-methylimidazole]	0	10	20	95	0	50	10	0	0	0	0	40	70	100	10	0	70	100	10	70	CASOB phytotoxicity rating (0-100) ([11]; 63 g al/ha): 0; CASOB phytotoxicity rating (0-100) ([11]; 500 g al/ha): 0; SETVI phytotoxicity rating (0-100) ([12]; 63 g al/ha): 0; SETVI phytotoxicity rating (0-100) ([12]; 500 g al/ha): 50; DIGSA phytotoxicity rating (0-100) ([13]; 63 g al/ha): 0; DIGSA phytotoxicity rating (0-100) ([13]; 500 g al/ha): 10; ECHCG phytotoxicity rating (0-100) ([14]; 63 g al/ha): 0; ECHCG phytotoxicity rating (0-100) ([14]; 500 g al/ha): 0; SORHA phytotoxicity rating (0-100) ([15]; 63 g al/ha): 0; SORHA phytotoxicity rating (0-100) ([15]; 500 g al/ha): 50; AMARE phytotoxicity rating (0-100) ([16]; 63 g al/ha): 0; AMARE phytotoxicity rating (0-100) ([16]; 500 g al/ha): 90; IPOHE phytotoxicity rating (0-100) ([17]; 63 g al/ha): 0; IPOHE phytotoxicity rating (0-100) ([17]; 500 g al/ha): 75; CHEAL phytotoxicity rating (0-100) ([18]; 63 g al/ha): 0; CHEAL phytotoxicity rating (0-100) ([18]; 500 g al/ha): 70; ABUTH phytotoxicity rating (0-100) ([19]; 63 g al/ha): 0; ABUTH phytotoxicity rating (0-100) ([19]; 500 g al/ha): 80; AMBEL phytotoxicity rating (0-100) ([20]; 63 g al/ha): 0; AMBEL phytotoxicity rating (0-100) ([20]; 500 g al/ha): 0
O=c1n(CCCF)nnn1-c1cc(Oc2ncccn2)c(Cl)cc1F [Compound 6-10, 1-[4-chloro-2-fluoro-5-(2-pyrimidyloxy)phenyl]-4-(3-fluoropropyl)-1,4-dihydro-5-oxo-5H-tetrazole]	40	100	100	100	100	100	100	100	100	100	100	100	100	100	100	100	100	100	100	100	CASOB phytotoxicity rating (0-100) ([11]; 63 g al/ha): 30; CASOB phytotoxicity rating (0-100) ([11]; 500 g al/ha): 100; SETVI phytotoxicity rating (0-100) ([12]; 63 g al/ha): 30; SETVI phytotoxicity rating (0-100) ([12]; 500 g al/ha): 100; DIGSA phytotoxicity rating (0-100) ([13]; 63 g al/ha): 50; DIGSA phytotoxicity rating (0-100) ([13]; 500 g al/ha): 100; ECHCG phytotoxicity rating (0-100) ([14]; 63 g al/ha): 30; ECHCG phytotoxicity rating (0-100) ([14]; 500 g al/ha): 100; SORHA phytotoxicity rating (0-100) ([15]; 63 g al/ha): 0; SORHA phytotoxicity rating (0-100) ([15]; 500 g al/ha): 100; AMARE phytotoxicity rating (0-100) ([16]; 63 g al/ha): 90; AMARE phytotoxicity rating (0-100) ([16]; 500 g al/ha): 100; IPOHE phytotoxicity rating (0-100) ([17]; 63 g al/ha): 100; IPOHE phytotoxicity rating (0-100) ([17]; 500 g al/ha): 100; CHEAL phytotoxicity rating (0-100) ([18]; 63 g al/ha): 90; CHEAL phytotoxicity rating (0-100) ([18]; 500 g al/ha): 100; ABUTH phytotoxicity rating (0-100) ([19]; 63 g al/ha): 100; ABUTH phytotoxicity rating (0-100) ([19]; 500 g al/ha): 100; AMBEL phytotoxicity rating (0-100) ([20]; 63 g al/ha): 30; AMBEL phytotoxicity rating (0-100) ([20]; 500 g al/ha): 100
O=c1sc(=Nc2cc(Oc3ncccc3C(F)(F)F)c(Cl)cc2F)n2n1CCCC2 [Compound 7-1, 9-[4-chloro-2-fluoro-5-(3-trifluoromethyl-2-pyridyloxy)phenylimino]-8-thia-1,6-diazabicyclo[4,3,0]nonane-7-one]	50	10	90	100	60	90	80	90	0	0	0	60	100	100	0	0	100	100	90	100	CASOB phytotoxicity rating (0-100) ([11]; 63 g al/ha): 70; CASOB phytotoxicity rating (0-100) ([11]; 500 g al/ha): 20; SETVI phytotoxicity rating (0-100) ([12]; 63 g al/ha): 20; SETVI phytotoxicity rating (0-100) ([12]; 500 g al/ha): 60; DIGSA phytotoxicity rating (0-100) ([13]; 63 g al/ha): 30; DIGSA phytotoxicity rating (0-100) ([13]; 500 g al/ha): 60; ECHCG phytotoxicity rating (0-100) ([14]; 63 g al/ha): 0; ECHCG phytotoxicity rating (0-100) ([14]; 500 g al/ha): 20; SORHA phytotoxicity rating (0-100) ([15]; 500 g al/ha): 30; AMARE phytotoxicity rating (0-100) ([16]; 63 g al/ha): 100; AMARE phytotoxicity rating (0-100) ([16]; 500 g al/ha): 100; IPOHE phytotoxicity rating (0-100) ([17]; 63 g al/ha): 100; IPOHE phytotoxicity rating (0-100) ([17]; 500 g al/ha): 100; CHEAL phytotoxicity rating (0-100) ([18]; 63 g al/ha): 100; CHEAL phytotoxicity rating (0-100) ([18]; 500 g al/ha): 100; ABUTH phytotoxicity rating (0-100) ([19]; 63 g al/ha): 90; ABUTH phytotoxicity rating (0-100) ([19]; 500 g al/ha): 100; AMBEL phytotoxicity rating (0-100) ([20]; 63 g al/ha): 95; AMBEL phytotoxicity rating (0-100) ([20]; 500 g al/ha): 100
